Laboratory results: paper PMC8596589 (Chembiochem : a European journal of chemical biology, 2021)
“Also recorded” adds a separate entry of the source.

Assays:
Dop [1] = molecular target: T1, Dop (Mycolicibacterium smegmatis, UniProt A0QZ49); assay: ATP competition assay / KM of ATP for Dop; format: biochemical, M. smegmatis
T1 sequence (A0QZ49 1-498): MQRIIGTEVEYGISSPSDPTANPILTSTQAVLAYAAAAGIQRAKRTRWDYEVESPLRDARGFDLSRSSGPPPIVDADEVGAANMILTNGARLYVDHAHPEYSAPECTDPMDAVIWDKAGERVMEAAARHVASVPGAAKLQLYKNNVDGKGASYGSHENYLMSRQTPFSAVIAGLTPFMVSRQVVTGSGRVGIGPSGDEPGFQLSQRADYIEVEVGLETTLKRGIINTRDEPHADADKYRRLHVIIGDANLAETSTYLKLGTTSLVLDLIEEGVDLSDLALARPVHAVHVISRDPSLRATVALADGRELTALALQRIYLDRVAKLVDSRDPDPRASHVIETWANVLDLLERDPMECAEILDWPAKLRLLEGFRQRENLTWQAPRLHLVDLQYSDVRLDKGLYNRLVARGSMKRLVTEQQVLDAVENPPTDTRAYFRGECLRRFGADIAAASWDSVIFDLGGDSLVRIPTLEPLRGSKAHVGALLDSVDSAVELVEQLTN

Dop [2] = molecular target: T1, Dop; assay: Jump-dilution assay; format: biochemical, M. smegmatis
Dop [3] = molecular target: T1, Dop; format: biochemical, M. smegmatis; settings: 100 μM inhibitor; 10 nM Dop; 250 nM FabD-Pup; 30 min
PafA [4] = molecular target: T2, PafA (Mycobacterium tuberculosis, UniProt P9WNU7); format: biochemical, Mtb; settings: 100 μM inhibitor; 50 nM PafA; 2 hours
T2 sequence (P9WNU7 1-452): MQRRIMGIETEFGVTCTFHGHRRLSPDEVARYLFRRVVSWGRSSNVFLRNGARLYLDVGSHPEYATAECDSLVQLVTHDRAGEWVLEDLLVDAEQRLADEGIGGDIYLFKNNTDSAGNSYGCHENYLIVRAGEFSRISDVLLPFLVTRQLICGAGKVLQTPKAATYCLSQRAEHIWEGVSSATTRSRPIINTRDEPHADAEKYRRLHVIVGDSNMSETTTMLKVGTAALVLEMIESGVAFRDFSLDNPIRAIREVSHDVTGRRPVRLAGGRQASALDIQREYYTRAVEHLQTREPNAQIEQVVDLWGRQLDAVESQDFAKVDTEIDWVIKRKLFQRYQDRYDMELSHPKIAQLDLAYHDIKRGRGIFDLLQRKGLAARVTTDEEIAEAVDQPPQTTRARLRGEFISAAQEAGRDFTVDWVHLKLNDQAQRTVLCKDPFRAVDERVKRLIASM

PafA [5] = molecular target: T2, PafA; format: biochemical, Mtb; settings: 100 µM inhibitor; 250 nM FabD; 50 nM PafA; six hours
Dop [6] = molecular target: T1, Dop; assay: biochemical; format: biochemical, M. smegmatis
PafA [7] = molecular target: T2, PafA; format: biochemical, Mtb; settings: 100 µM compound; 50 nM PafA; 2 hours

`Nc1ncnc2c1ncn2[C@@H]1O[C@H](COP(=O)(O)OP(=O)(O)OP(=O)(O)O)[C@@H](O)[C@H]1O` [ATP] showed a Km (Dop [1]; read-out: KM of ATP for Dop, Michaelis-Menten curve of Dop vs. [ATP]) of 320 ± 30 µM.
`COc1cc(/C=C(\C#N)C(=O)c2ccc(O)c(O)c2)cc(I)c1O` [Compound 1, I-OMe-Tyrphostin AG538] was tested, and the “Dop activity after 100-fold dilution (jump-dilution)” value (Dop [2]) was “Complete restoration of Dop activity”, the “Inhibition of depupylation of FabD-Pup by Dop” value (Dop [3]) was “incompletely inhibited” and the “Inhibition of depupylation of FabD-Pup by PafA” value (from here on “Inhibition … of FabD-Pup by PafA”) (PafA [4]) was “partly inhibited”. For the same compound, the “Inhibition of pupylation of FabD by PafA (ligase activity)” value (from here on “Inhibition of pupylation of FabD by PafA”) (PafA [5]) was “partly inhibited”, the “Change of IC50 with ATP concentration” value (Dop [1]; eight ATP concentrations, 0.1–6.4 mM) was “did not significantly increase” and the “IC50 at 10-fold increased Dop concentration (ratio test)” value (Dop [6]) was 0.70 ± 0.03 μM. The “IC50 at routine Dop concentration (ratio test)” value (Dop [6]; 30 nM Dop) was 0.26 ± 0.06 µM and the “Inhibition of depupylation of Ino1-Pup by PafA” value (from here on “Inhibition … of Ino1-Pup by PafA”) (PafA [7]) was “partially inhibited”.
For `N#C/C(=C\c1ccc(O)c(O)c1)C(=O)c1ccc(O)c(O)c1` [Compound 2, Tyrphostin AG538], the “Inhibition of depupylation of FabD-Pup by Dop” value (Dop [3]) was “failed to inhibit; also recorded: did not inhibit; also recorded: leaving Dop activity intact”, the “Inhibition … of FabD-Pup by PafA” value (PafA [4]) was “completely inhibited; also recorded: fully inhibits; also recorded: efficiently inhibit” and the “Inhibition of pupylation of FabD by PafA” value (PafA [5]) was “completely inhibited; also recorded: fully inhibits; also recorded: efficiently inhibit”. The “Inhibition … of Ino1-Pup by PafA” value (PafA [7]) was “partially inhibited”.
`COc1cc(/C=C(\C#N)C(=O)c2ccccc2)cc(I)c1O` [Compound 5a] showed an IC50 (Dop [6]) of 5.4 ± 0.5 µM.
With `N#C/C(=C\c1ccccc1)C(=O)c1ccccc1` [Compound 5b] the IC50 (Dop [6]) was > 100 µM.
For `COc1cc(/C=C(\C#N)C(=O)c2ccc(O)c(O)c2)ccc1O` [Compound 10a], the IC50 (Dop [6]) was > 100 µM.
For `COc1cc(/C=C(\C#N)C(=O)c2ccc(O)c(O)c2)cc([N+](=O)[O-])c1O` [Compound 10b], the IC50 (Dop [6]) was 4.1 ± 0.1 µM.
With `COc1cc(/C=C(\C#N)C(=O)c2ccc(O)c(O)c2)cc(Br)c1O` [Compound 10i] the “Inhibition … of FabD-Pup by PafA” value (PafA [4]) was “partly inhibited”, the “Inhibition of pupylation of FabD by PafA” value (PafA [5]) was “partly inhibited” and the IC50 (Dop [6]) was 2.7 ± 0.2 µM.
For `N#C/C(=C\c1cc(O)c(O)c(I)c1)C(=O)c1ccc(O)c(O)c1` [Compound 10k], the “Inhibition … of FabD-Pup by PafA” value (PafA [4]) was “completely inhibited”, the “Inhibition of pupylation of FabD by PafA” value (PafA [5]) was “completely inhibited” and the IC50 (Dop [6]) was 0.29 ± 0.01 µM. For the same compound, the “Inhibition … of Ino1-Pup by PafA” value (PafA [7]) was “fully inhibited”.
With `COc1cc(/C=C/C(=O)c2ccccc2)cc(I)c1O` [Compound 12] the IC50 (Dop [6]) was 29 µM and the “Decrease in potency compared to 1” value (Dop [6]; ratio of IC50 values vs compound 1) was 60 fold.
`COc1cc(/C=C(\C#N)C(O)c2ccccc2)cc(I)c1O` (stereo not shown) [Compound 13] was tested, and the IC50 (Dop [6]) was 57 µM.
`COc1cc(CC(C#N)C(O)c2ccccc2)cc(I)c1O` (stereo not shown) [Compound 14] was tested, and the “Dop inhibition in the fluorogenic assay (in words)” value (Dop [6]; Pup(33–63)-Glu(AMC) substrate, highest conc. 100 µM) was “complete loss of activity”.
